# Source: patent US20010044463A1, “Methods for controlling gram negative bacteria in mammals” (priority 1997, published 2001)
# Tests used:
# [1] = system: H. pylori ATCC 43504; assay: Minimum Inhibitory Concentration (MIC) blood agar plate growth inhibition; type: cell-based, Helicobacter pylori
# Description: Subsequent dilutions were made in ethanol immediately prior to use. […] Subsequent dilutions were made in BHI medium (Brain heart infusion broth, Difco #0037-07-0) immediately prior to use.
# (§1) Blood agar base (BAB) was prepared containing 1.5% agar and autoclaved. 20 ml samples of autoclaved BAB were poured into 50 mL tubes and placed in a 56° C. water bath.
# The mixed media preparation was poured into a petri dished and allowed to solidify.
# (§2) Prior to inoculation of petri plates, bacteria or cultures were examined for morphology under a phase microscope to confirm motility and physical characteristics, e.g., spiral shaped. The organisms were washed off the plate into PBS (Phosphate buffered saline) (80.0 g NaCl, 2.0 g KCl, 2.4 g KH2PO4 11.5 g Na2HPO4 or 24.4 g Na2HPO4/2H2O per 1 liter deionized water, pH 7.2, sterilized by autoclaving) and diluted into BHI at a concentration of 10^8/ml (O.D. of 0.3 units diluted 1:30). Ten microliters of solution containing 10^6 organisms were spread onto a petri plate and grown under microaerophilic conditions for 3 days unless specified. Control organisms were grown under microaerophilic conditions.
# (§3) Inhibition of growth was determined by the amount of colonies present within the petri plate. The following factors were used for growth inhibition: ±=0-20 colonies, +=20-50 colonies, ++=50-200 colonies and +++=200+ colonies.
# [2] = system: H. pylori (urease negative) (Wild strain of ATCC 43504); assay: as above; type: cell-based, Helicobacter pylori; details: Table III
# Description: (§4) Monensin (Sigma Cat. No. M-5273) was dissolved in 100% absolute ethanol (AAPER Alcohol and Chemical Co.) at a concentration of 20 mg/ml. Subsequent dilutions were made in ethanol immediately prior to use. Nigericin (Sigma Cat. No. N-7143) was dissolved in DMSO at 2 mg/ml. Subsequent dilutions were made in BHI medium (Brain heart infusion broth, Difco #0037-07-0) immediately prior to use.
# as §1
# (§5) 100 μl of a drug (final concentration equivalent to 1:200 of original concentration) and 1.2 ml of sheep blood (Colorado Senun Company # CS-1112) (blood diluted in a 1:1 buffer providing a 3% concentration of blood per 20 ml medium sample) were added to 20 ml sample of media and mixed. The mixed media preparation was poured into a petri dished and allowed to solidify.
# as §2, §3
# [3] = system: H. pylori (urease positive) ATCC Number 51652; assay: as above; type: cell-based, Helicobacter pylori; details: Table VIII
# Description: as §4, §1, §5, §2, §3
# [4] = system: Staph ATCC 14775; assay: Blood agar plate growth inhibition, control organism; type: cell-based
# Description: as §4, §1, §5
# as §2, with “Control organisms were grown under microaerophilic conditions.” left out
# as §3
structure (smiles),measurement,setting,value
"CC[C@@]1([C@@H]2O[C@@H]([C@H]3O[C@@](O)(CO)[C@H](C)C[C@@H]3C)C[C@@H]2C)CC[C@H]([C@]2(C)CC[C@]3(C[C@H](O)[C@@H](C)[C@@H]([C@@H](C)[C@@H](OC)[C@H](C)C(=O)O)O3)O2)O1 [Monensin, monensin]",MIC,"[1]; Helicobacter pylori, ATCC43504",0.39 µg/mL
same,growth (amount of colonies present within the petri plate),"[1]; Table I, final drug concentration 0.1 ng/ml",(+++) (+++=200+ colonies)
same,growth (amount of colonies present within the petri plate),"[1]; Table I, final drug concentration 1 ng/ml",(+) (+=20-50 colonies)
same,growth (amount of colonies present within the petri plate),"[1]; Table I, final drug concentration 10 ng/ml",(+) (+=20-50 colonies)
same,growth (amount of colonies present within the petri plate),"[1]; Table I, final drug concentration 100 ng/ml",No growth
same,growth (amount of colonies present within the petri plate),"[1]; Table I, final drug concentration 1 μg/ml",No growth
same,growth (amount of colonies present within the petri plate),"[1]; Table I, final drug concentration 10 μg/ml",No growth
same,growth (amount of colonies present within the petri plate),"[1]; Table II, urease positive, final drug concentration 1 ng/ml",(+++) (+++=200+ colonies)
same,growth (amount of colonies present within the petri plate),"[1]; Table II, urease positive, final drug concentration 100 ng/ml",(+++) (+++=200+ colonies)
same,growth (amount of colonies present within the petri plate),"[1]; Table II, urease positive, final drug concentration 10 μg/ml",No growth
same,growth (amount of colonies present within the petri plate),"[1]; Table II, urease positive, final drug concentration 0.1 nglml",(+++) (+++=200+ colonies)
same,growth (amount of colonies present within the petri plate),"[1]; Table IV, urease positive, final drug concentration 0.1 ng/ml",(+++) (+++=200+ colonies)
same,growth (amount of colonies present within the petri plate),"[1]; Table IV, urease positive, final drug concentration 1 ng/ml",(+++) (+++=200+ colonies)
same,growth (amount of colonies present within the petri plate),"[1]; Table IV, urease positive, final drug concentration 10 ng/ml",(+++) (+++=200+ colonies)
same,growth (amount of colonies present within the petri plate),"[1]; Table IV, urease positive, final drug concentration 100 ng/ml",(+++) (+++=200+ colonies)
same,growth (amount of colonies present within the petri plate),"[1]; Table IV, urease positive, final drug concentration 1 μg/ml",No growth
same,growth (amount of colonies present within the petri plate),"[1]; Table IV, urease positive, final drug concentration 10 μg/ml",No growth
same,growth (amount of colonies present within the petri plate),"[1]; Table V, in the presence of 10 mM urea, final drug concentration 0.1 ng/ml, Nigericin assay done in duplicate",(+++) (+++=200+ colonies)
same,growth (amount of colonies present within the petri plate),"[1]; Table V, in the presence of 10 mM urea, final drug concentration 1 ng/ml, Nigericin assay done in duplicate",(+++) (+++=200+ colonies)
same,growth (amount of colonies present within the petri plate),"[1]; Table V, in the presence of 10 mM urea, final drug concentration 10 ng/ml, Nigericin assay done in duplicate",(+++) (+++=200+ colonies)
same,growth (amount of colonies present within the petri plate),"[1]; Table V, in the presence of 10 mM urea, final drug concentration 100 ng/ml, Nigericin assay done in duplicate",(+++) (+++=200+ colonies)
same,growth (amount of colonies present within the petri plate),"[1]; Table V, in the presence of 10 mM urea, final drug concentration 1 μg/ml, Nigericin assay done in duplicate",No growth
same,growth (amount of colonies present within the petri plate),"[1]; Table V, in the presence of 10 mM urea, final drug concentration 10 μg/ml, Nigericin assay done in duplicate",No growth
same,growth (amount of colonies present within the petri plate),"[1]; Table VI, in the presence of 2.5 mM urea, final drug concentration 1 ng/ml",(+++) (+++=200+ colonies)
same,growth (amount of colonies present within the petri plate),"[1]; Table VI, in the presence of 2.5 mM urea, final drug concentration 10 ng/ml",(+++) (+++=200+ colonies)
same,growth (amount of colonies present within the petri plate),"[1]; Table VI, in the presence of 2.5 mM urea, final drug concentration 1 μg/ml",No growth
same,growth (amount of colonies present within the petri plate),"[1]; Tables IX-XIII, final drug concentration 0.098 μg/ml",(+++) (+++=200+ colonies)
same,growth (amount of colonies present within the petri plate),"[1]; Tables IX-XIII, final drug concentration 0.195 μg/ml",(++) (++=50-200 colonies)
same,growth (amount of colonies present within the petri plate),"[1]; Tables IX-XIII, final drug concentration 0.39 μg/ml",(±) (±=0-20 colonies)
same,growth (amount of colonies present within the petri plate),"[1]; Tables IX-XIII, final drug concentration 0.78 μg/ml",No growth
same,growth (amount of colonies present within the petri plate),"[1]; Tables IX-XIII, final drug concentration 6.25 μg/ml",No growth
same,growth (amount of colonies present within the petri plate),"[1]; Tables IX-XIII, final drug concentration 12.5 μg/ml",No growth
same,growth (amount of colonies present within the petri plate),"[1]; Tables IX-XIII, final drug concentration 25 μg/ml",No growth
same,growth (amount of colonies present within the petri plate),"[1]; Tables IX-XIII, final drug concentration 50 μg/ml",No growth
same,growth (amount of colonies present within the petri plate),"[1]; Tables IX-XIII, final drug concentration 100 μg/ml",No growth
same,growth (amount of colonies present within the petri plate),[2]; final drug concentration 0.1 ng/ml,(+++) (+++=200+ colonies)
same,growth (amount of colonies present within the petri plate),[2]; final drug concentration 1 ng/ml,(+++) (+++=200+ colonies)
same,growth (amount of colonies present within the petri plate),[2]; final drug concentration 10 ng/ml,(+++) (+++=200+ colonies)
same,growth (amount of colonies present within the petri plate),[2]; final drug concentration 100 ng/ml,(+++) (+++=200+ colonies)
same,growth (amount of colonies present within the petri plate),[2]; final drug concentration 1 μg/ml,No growth
same,growth (amount of colonies present within the petri plate),[2]; final drug concentration 10 μg/ml,No growth
same,growth (amount of colonies present within the petri plate),[3]; final drug concentration 0.098 μg/ml,No growth
same,growth (amount of colonies present within the petri plate),[3]; final drug concentration 0.195 μg/ml,No growth
same,growth (amount of colonies present within the petri plate),[3]; final drug concentration 0.39 μg/ml,No growth
same,growth (amount of colonies present within the petri plate),[3]; final drug concentration 0.78 μg/ml,No growth
same,growth (amount of colonies present within the petri plate),[3]; final drug concentration 1.56 μg/ml,No growth
same,growth (amount of colonies present within the petri plate),[3]; final drug concentration 3.125 μg/ml,No growth
same,growth (amount of colonies present within the petri plate),[3]; final drug concentration 6.25 μg/ml,No growth
same,growth (amount of colonies present within the petri plate),[3]; final drug concentration 12.5 μg/ml,No growth
same,growth (amount of colonies present within the petri plate),[3]; final drug concentration 25 μg/ml,No growth
same,growth (amount of colonies present within the petri plate),[3]; final drug concentration 50 μg/ml,No growth
same,growth (amount of colonies present within the petri plate),[3]; final drug concentration 100 μg/ml,No growth
same,growth (amount of colonies present within the petri plate),"[4]; Table XIV, Non-microaerophilic conditions, final drug concentration 0.1 ng/ml",(+++) (+++=200+ colonies)
same,growth (amount of colonies present within the petri plate),"[4]; Table XIV, Non-microaerophilic conditions, final drug concentration 1 ng/ml",(+++) (+++=200+ colonies)
same,growth (amount of colonies present within the petri plate),"[4]; Table XIV, Non-microaerophilic conditions, final drug concentration 10 ng/ml",(+++) (+++=200+ colonies)
same,growth (amount of colonies present within the petri plate),"[4]; Table XIV, Non-microaerophilic conditions, final drug concentration 100 ng/ml",(+++) (+++=200+ colonies)
same,growth (amount of colonies present within the petri plate),"[4]; Table XIV, Non-microaerophilic conditions, final drug concentration 1 μg/ml",(+++***) (+++=200+ colonies)
same,growth (amount of colonies present within the petri plate),"[4]; Table XIV, Non-microaerophilic conditions, final drug concentration 10 μg/ml",No growth
same,growth (amount of colonies present within the petri plate),"[4]; Table XVI, Non-aerophilic conditions, final drug concentration 0.098 μg/ml",(+++) (+++=200+ colonies)
same,growth (amount of colonies present within the petri plate),"[4]; Table XVI, Non-aerophilic conditions, final drug concentration 0.195 μg/ml",(+++) (+++=200+ colonies)
same,growth (amount of colonies present within the petri plate),"[4]; Table XVI, Non-aerophilic conditions, final drug concentration 0.39 μg/ml",(+++) (+++=200+ colonies)
same,growth (amount of colonies present within the petri plate),"[4]; Table XVI, Non-aerophilic conditions, final drug concentration 0.78 μg/ml",(++) (++=50-200 colonies)
same,growth (amount of colonies present within the petri plate),"[4]; Table XVI, Non-aerophilic conditions, final drug concentration 1.56 μg/ml",(+)^2 (+=20-50 colonies)
same,growth (amount of colonies present within the petri plate),"[4]; Table XVI, Non-aerophilic conditions, final drug concentration 3.125 μg/ml",(+)^2 (+=20-50 colonies)
same,growth (amount of colonies present within the petri plate),"[4]; Table XVI, Non-aerophilic conditions, final drug concentration 6.25 μg/ml",(+)^2 (+=20-50 colonies)
same,growth (amount of colonies present within the petri plate),"[4]; Table XVI, Non-aerophilic conditions, final drug concentration 12.5 μg/ml",(±)^1 (±=0-20 colonies)
same,growth (amount of colonies present within the petri plate),"[4]; Table XVI, Non-aerophilic conditions, final drug concentration 25 μg/ml",(±)^1 (±=0-20 colonies)
same,growth (amount of colonies present within the petri plate),"[4]; Table XVI, Non-aerophilic conditions, final drug concentration 50 μg/ml",No growth
same,growth (amount of colonies present within the petri plate),"[4]; Table XVI, Non-aerophilic conditions, final drug concentration 100 μg/ml",No growth
